Experimental findings from article PMC7305236, “The atypical chemokine receptor ACKR3/CXCR7 is a broad-spectrum scavenger for opioid peptides” (Nature Communications, 2020) are described below.

In one experiment the target is T1, CCR3 (Homo sapiens, UniProt P51677).
T1 sequence (P51677 1-355): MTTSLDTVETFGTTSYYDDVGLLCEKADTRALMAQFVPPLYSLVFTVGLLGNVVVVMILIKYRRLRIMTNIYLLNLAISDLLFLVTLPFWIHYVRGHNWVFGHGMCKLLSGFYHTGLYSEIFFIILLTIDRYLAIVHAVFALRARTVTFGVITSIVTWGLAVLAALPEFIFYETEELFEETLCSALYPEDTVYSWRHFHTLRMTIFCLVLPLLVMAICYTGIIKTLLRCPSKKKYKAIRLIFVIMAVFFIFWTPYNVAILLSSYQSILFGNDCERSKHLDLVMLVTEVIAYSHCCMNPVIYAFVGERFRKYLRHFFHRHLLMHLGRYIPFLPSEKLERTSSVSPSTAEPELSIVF
Nature of the experiment: Figure S2a opioid peptide screen on chemokine receptors. Also on record: dose or concentration left out as unconfirmed. Particulars: read-out: CCR3 activity, ctrl+ = 100, Figure S2a.

For the next experiment, the target named is T2, ACKR2 (Homo sapiens, UniProt O00590).
T2 construct: expressed in transfected cells; host or cells: U87 cells (human glioblastoma)
T2 sequence (O00590 1-384): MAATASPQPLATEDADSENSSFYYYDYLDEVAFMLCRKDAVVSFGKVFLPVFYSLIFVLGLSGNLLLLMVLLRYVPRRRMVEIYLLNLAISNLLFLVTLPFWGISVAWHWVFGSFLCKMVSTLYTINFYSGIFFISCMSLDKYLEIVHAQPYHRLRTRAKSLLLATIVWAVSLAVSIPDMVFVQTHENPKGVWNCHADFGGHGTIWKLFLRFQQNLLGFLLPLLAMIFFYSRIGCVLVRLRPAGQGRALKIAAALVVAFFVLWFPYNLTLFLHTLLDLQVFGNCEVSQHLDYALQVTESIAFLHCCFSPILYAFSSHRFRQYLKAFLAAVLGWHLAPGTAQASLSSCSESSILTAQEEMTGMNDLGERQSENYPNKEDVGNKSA
Described as above. The format is cell-based. Details: dose or concentration left out as unconfirmed. The conditions noted are these: replicate 2, read-out: ACKR2 activity, ctrl+ = 100.

The target of another experiment is T3, CXCR3A (Homo sapiens, UniProt P49682).
T3 construct: expressed in transfected cells; host or cells: U87 cells
T3 sequence (P49682 1-368): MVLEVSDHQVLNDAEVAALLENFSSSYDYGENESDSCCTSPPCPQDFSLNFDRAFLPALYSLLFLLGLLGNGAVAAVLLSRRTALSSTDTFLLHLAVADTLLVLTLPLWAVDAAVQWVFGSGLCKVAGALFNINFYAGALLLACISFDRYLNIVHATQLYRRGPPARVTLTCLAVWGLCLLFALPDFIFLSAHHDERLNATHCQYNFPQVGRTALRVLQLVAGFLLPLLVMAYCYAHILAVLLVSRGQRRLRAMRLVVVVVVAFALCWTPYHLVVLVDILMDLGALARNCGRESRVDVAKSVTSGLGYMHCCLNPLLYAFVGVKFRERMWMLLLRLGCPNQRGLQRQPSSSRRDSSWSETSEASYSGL
Described as above. In kind it is cell-based. Details: dose or concentration left out as unconfirmed. Particulars: replicate 1, read-out: CXCR3A activity, ctrl+ = 100.

For the next experiment, the target named is T4, CCR6 (Homo sapiens, UniProt P51684).
T4 construct: expressed in transfected cells
T4 sequence (P51684 1-374): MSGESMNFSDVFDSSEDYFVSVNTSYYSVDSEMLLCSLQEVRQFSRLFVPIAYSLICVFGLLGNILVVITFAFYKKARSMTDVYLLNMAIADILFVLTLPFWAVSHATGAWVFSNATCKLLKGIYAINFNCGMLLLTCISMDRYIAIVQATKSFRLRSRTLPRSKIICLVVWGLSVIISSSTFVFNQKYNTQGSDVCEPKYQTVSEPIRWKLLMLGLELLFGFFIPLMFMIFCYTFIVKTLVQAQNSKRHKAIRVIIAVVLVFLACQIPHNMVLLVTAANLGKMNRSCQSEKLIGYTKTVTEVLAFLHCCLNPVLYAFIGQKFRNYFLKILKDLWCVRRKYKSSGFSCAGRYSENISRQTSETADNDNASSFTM
Described as above. The format is cell-based. Also on record: dose or concentration left out as unconfirmed. The conditions noted are these: replicate 1, read-out: CCR6 activity, ctrl+ = 100.

Experiment [1] addresses T5, ACKR3 (Homo sapiens, UniProt P25106). Put plainly: cell-based. Details: dose or concentration left out as unconfirmed. Particulars: read-out: ACKR3 activity, ctrl+ = 100, Figure S2a; replicate 2.
A further experiment addresses T6, CCR1 (Homo sapiens, UniProt P32246).
T6 construct: expressed in transfected cells
T6 sequence (P32246 1-355): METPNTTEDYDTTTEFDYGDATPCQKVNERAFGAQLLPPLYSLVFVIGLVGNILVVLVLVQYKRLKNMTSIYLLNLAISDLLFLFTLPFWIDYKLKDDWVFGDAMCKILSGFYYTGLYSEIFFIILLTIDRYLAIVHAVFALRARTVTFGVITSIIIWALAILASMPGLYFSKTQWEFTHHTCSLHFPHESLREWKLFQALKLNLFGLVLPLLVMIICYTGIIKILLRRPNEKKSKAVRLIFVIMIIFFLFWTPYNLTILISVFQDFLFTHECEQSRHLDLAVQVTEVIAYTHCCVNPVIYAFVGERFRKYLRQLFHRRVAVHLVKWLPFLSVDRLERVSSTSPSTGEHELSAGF
Nature of the experiment: Figure S2a opioid peptide screen on chemokine receptors. Also on record: dose or concentration left out as unconfirmed. Particulars: replicate 1, read-out: CCR1 activity, ctrl+ = 100. The format is cell-based.

Another experiment has as its target T7, CXCR4 (Homo sapiens, UniProt P61073).
T7 construct: expressed in transfected cells; host or cells: U87, transient cotransfection of pNBe vectors
The format is cell-based.

Experiment [2] addresses T8, KOR (Homo sapiens, UniProt P41145). Put plainly: Figure 6h, KOR, DMSO vs Bafilomycin treatment. Details: expressed in transfected cells; host or cells: U87 (human glioblastoma). The conditions noted are these: n = 3 or 4 as in cell. In kind it is cell-based.
Another experiment has as its target T9, ACKR (Homo sapiens, UniProt P25106).
T9 construct: expressed in transfected cells; host or cells: U87 cells (human glioblastoma)
Put plainly: Figure 6h, ACKR, DMSO vs Bafilomycin treatment. The conditions noted are these: n = 3 or 4 as in cell. The format is cell-based.

A further experiment concerns the target NOP (Homo sapiens, UniProt P41146). Put plainly: Activity of ligands towards NOP (source data Fig 4a, 4c). In kind it is cell-based. Particulars: 100 nM.
Experiment [3] addresses T8, KOR. The format is cell-based. Particulars: 100 nM. Also on record: expressed in transfected cells; host or cells: U87 (human glioblastoma), transient co-transfection.
The target of experiment [4] is T5, ACKR3. In kind it is cell-based. Also on record: expressed in transfected cells. Particulars: 100 nM.
A further experiment concerns the target T10, DOR (Homo sapiens, UniProt P41143).
T10 construct: expressed in transfected cells; host or cells: U87 (human glioblastoma)
The format is cell-based. Particulars: 100 nM.

The target of another experiment is T11, CXCR7 (Homo sapiens, UniProt P25106).
T11 construct: expressed in transfected cells; host or cells: U87 cells
T11 sequence (P25106 whole entry): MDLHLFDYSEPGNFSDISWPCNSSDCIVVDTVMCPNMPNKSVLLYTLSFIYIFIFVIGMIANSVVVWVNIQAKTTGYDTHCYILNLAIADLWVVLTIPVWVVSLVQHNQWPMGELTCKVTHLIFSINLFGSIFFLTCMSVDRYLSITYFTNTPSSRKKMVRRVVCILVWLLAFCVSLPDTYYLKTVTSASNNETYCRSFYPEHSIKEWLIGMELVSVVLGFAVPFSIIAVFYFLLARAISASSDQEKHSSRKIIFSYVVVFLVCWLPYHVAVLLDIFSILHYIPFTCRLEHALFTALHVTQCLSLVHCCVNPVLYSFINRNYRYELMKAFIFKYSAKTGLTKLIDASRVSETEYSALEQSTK
Nature of the experiment: Figure S1a: screen of opioid peptides on CXCR7. The format is cell-based.

The target of a further experiment is T12, U87 ACKR3 (Homo sapiens, UniProt P25106).
T12 construct: expressed in transfected cells
T12 sequence (P25106 whole entry): as above
Put plainly: Figure 6c source data, U87 ACKR3. The format is cell-based. The conditions noted are these: Figure 6c inset, U87 ACKR3 + labelled peptide, titrated agonist not given.

Setting [5] is: 'DMSO vs Bafilomycin treatment'.
Where [6] appears, read: first of two columns under 'DMSO vs Bafilomycin treatment' (presumably DMSO).

Like-named read-outs stand apart in the source and are kept apart here.

NOP, sequence (P41146 whole entry): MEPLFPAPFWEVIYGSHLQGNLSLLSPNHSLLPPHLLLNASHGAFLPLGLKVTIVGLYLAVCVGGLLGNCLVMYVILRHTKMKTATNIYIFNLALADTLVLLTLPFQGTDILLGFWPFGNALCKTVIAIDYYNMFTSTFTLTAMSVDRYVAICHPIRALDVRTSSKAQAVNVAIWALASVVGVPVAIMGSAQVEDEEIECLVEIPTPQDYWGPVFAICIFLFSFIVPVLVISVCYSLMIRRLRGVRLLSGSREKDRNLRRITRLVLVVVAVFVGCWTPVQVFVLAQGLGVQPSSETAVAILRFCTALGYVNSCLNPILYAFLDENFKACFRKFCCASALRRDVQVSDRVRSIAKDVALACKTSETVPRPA
T10 sequence (P41143 whole entry): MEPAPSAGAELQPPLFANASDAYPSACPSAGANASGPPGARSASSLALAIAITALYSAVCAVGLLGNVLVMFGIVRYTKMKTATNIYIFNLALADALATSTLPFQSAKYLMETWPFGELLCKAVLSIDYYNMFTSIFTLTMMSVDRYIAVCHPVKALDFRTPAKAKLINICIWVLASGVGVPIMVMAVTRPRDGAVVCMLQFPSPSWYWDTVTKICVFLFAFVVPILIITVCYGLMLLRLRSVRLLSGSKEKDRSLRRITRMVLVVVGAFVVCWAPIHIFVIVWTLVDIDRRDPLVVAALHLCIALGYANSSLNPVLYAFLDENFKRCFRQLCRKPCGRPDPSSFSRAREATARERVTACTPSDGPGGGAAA
T7 sequence (P61073 whole entry): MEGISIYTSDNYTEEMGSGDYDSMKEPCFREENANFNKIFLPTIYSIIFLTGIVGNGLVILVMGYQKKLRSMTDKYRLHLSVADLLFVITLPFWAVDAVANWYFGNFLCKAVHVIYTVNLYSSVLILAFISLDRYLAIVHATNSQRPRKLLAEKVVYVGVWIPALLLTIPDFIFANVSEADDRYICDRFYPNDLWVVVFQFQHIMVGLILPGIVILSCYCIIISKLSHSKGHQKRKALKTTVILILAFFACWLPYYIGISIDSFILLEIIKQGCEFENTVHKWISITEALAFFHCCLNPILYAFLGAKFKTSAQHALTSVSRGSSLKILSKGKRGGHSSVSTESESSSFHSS
T8 sequence (P41145 whole entry): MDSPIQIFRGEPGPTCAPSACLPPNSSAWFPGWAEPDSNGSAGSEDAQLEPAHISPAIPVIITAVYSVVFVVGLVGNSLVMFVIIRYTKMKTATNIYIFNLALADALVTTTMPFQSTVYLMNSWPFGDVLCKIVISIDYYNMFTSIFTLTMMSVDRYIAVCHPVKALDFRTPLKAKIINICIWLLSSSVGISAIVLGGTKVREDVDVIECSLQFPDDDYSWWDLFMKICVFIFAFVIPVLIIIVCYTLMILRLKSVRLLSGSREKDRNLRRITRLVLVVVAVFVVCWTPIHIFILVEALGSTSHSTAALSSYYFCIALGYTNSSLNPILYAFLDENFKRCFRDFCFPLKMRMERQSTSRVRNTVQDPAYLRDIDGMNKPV
T5 sequence (P25106 whole entry): as the sequence (P25106 whole entry) above
T9 sequence (P25106 whole entry): as above

In the case of `CC[C@H](C)[C@H](NC(=O)[C@H](C)NC(=O)[C@H](CC(N)=O)NC(=O)[C@H](CCCCN)NC(=O)[C@H](Cc1ccccc1)NC(=O)[C@H](CC(C)C)NC(=O)[C@@H](NC(=O)[C@@H](NC(=O)[C@H](CC(C)C)NC(=O)[C@@H]1CCCN1C(=O)[C@@H](NC(=O)[C@H](CCC(N)=O)NC(=O)[C@H](CO)NC(=O)[C@H](CCCCN)NC(=O)[C@H](CCC(=O)O)NC(=O)[C@H](CO)NC(=O)[C@@H](NC(=O)[C@H](CCSC)NC(=O)[C@H](Cc1ccccc1)NC(=O)CNC(=O)CNC(=O)[C@@H](N)Cc1ccc(O)cc1)[C@@H](C)O)[C@@H](C)O)C(C)C)[C@@H](C)O)C(=O)N[C@H](C(=O)N[C@@H](CCCCN)C(=O)N[C@@H](CC(N)=O)C(=O)N[C@@H](C)C(=O)N[C@@H](Cc1ccc(O)cc1)C(=O)N[C@@H](CCCCN)C(=O)N[C@@H](CCCCN)C(=O)NCC(=O)N[C@@H](CCC(=O)O)C(=O)O)[C@@H](C)CC` [-endorphin], the activation at CCR3 (replicate 1) was found to be 5.63%; on CCR3 (replicate 2), 8.01%; at ACKR2, 16.8%; on CXCR3A, 2.35%; at CCR6, 1.21%; at ACKR3 [1], 3.39%. Further, the activation at CCR1 stood at 6.2%.

For `c1cc(CN2CCCNCCNCCCNCC2)ccc1CN1CCCNCCNCCCNCC1` [AMD3100], the “Figure S1a value, CXCR4” value on CXCR4 (replicate 1) is reported as -2.401; at CXCR4 (replicate 2) it was 38.4908.

As to `CSCC[C@H](NC(=O)[C@H](Cc1ccccc1)NC(=O)CNC(=O)CNC(=O)[C@@H](N)Cc1ccccc1)C(=O)N[C@@H](CCCNC(=N)N)C(=O)N[C@@H](CCCNC(=N)N)C(=O)N[C@@H](CCCCN)C(N)=O` [LIH383], the “Mean ± SEM (Figure 6h, KOR)” value was 102,6 ± 3,011, n=3 on KOR [2] (setting [5]) and 99,75 ± 4,761, n=3 at KOR [2] (setting [6]). In addition, the “Mean ± SEM (Figure 6h, ACKR)” value is reported as 25,99 ± 1,65, n=3 at ACKR (setting [5]) and 41,87 ± 2,846, n=3 on ACKR (setting [6]).

On to `C=CCN1CC[C@]23CCCC[C@H]2[C@H]1Cc1ccc(O)cc13` [Levallorphan], for which the “NOP activity, Fig 4a” value is listed as 19.6254 on NOP (replicate 1), -2.413 at NOP (replicate 2) and -13.909 on NOP (replicate 3). The “KOR activity, Fig 4a” value is on record as -79.0502 at KOR [3] (replicate 1), -66.9071 on KOR [3] (replicate 2) and -81.2861 on KOR [3] (replicate 3). In addition, the figures for the “ACKR3 activity, Fig 4a” value on ACKR3 [4] (replicate 1), on ACKR3 [4] (replicate 2) and at ACKR3 [4] (replicate 3) were 29.7947, -20.4867 and -0.5025, respectively. Also, the “DOR activity, Fig 4a” value at DOR (replicate 1) was -48.6722; on DOR (replicate 2), -49.4812; on DOR (replicate 3) it was -45.6651.

As to `C=CCN1CC[C@]23c4c5ccc(O)c4O[C@H]2C(=O)CC[C@@]3(O)[C@H]1C5` [Naloxone], the “ACKR3 activity, Fig 4a” value on ACKR3 [4] (replicate 1) is on record as -16.5596; on ACKR3 [4] (replicate 2) it was -16.7812; at ACKR3 [4] (replicate 3) it was -9.5257.

As to `Oc1ccc2c3c1O[C@H]1c4[nH]c5ccccc5c4C[C@@]4(O)[C@@H](C2)N(CC2CC2)CC[C@]314` [Naltrindole], the “ACKR3 activity, Fig 4a” value is 7.799 on ACKR3 [4] (replicate 1), 7.647 at ACKR3 [4] (replicate 2) and 1.281 on ACKR3 [4] (replicate 3).

As for `Oc1ccc2c3c1O[C@H]1c4[nH]c5c(c4C[C@@]4(O)[C@@H](C2)N(CC2CC2)CC[C@]314)C[C@@]1(O)[C@H]2Cc3ccc(O)c4c3[C@@]1(CCN2CC1CC1)[C@H]5O4` [nor-Binaltrophimine], the “NOP activity, Fig 4a” value at NOP (replicate 1) is 13.2975; at NOP (replicate 2) it was 23.1448; on NOP (replicate 3) it was -11.7109. Also, the “ACKR3 activity, Fig 4a” value on ACKR3 [4] (replicate 1) came to 6.23; at ACKR3 [4] (replicate 2), 7.454; on ACKR3 [4] (replicate 3), 1.2819.

With Buprenorphine, the “ACKR3 activity, Fig 4a” value at ACKR3 [4] (replicate 1) is listed as -5.792; on ACKR3 [4] (replicate 2), 26.4917; at ACKR3 [4] (replicate 3) it was -14.8896.

For the compound CXCL11, the “Figure S1a value, CXCR4” value is recorded as 49.1082 with CXCR4 (replicate 1) and 78.3882 in the experiment with CXCR4 (replicate 2). Moreover, the “Figure S1a value, CXCR7” value came to 84.3234 with CXCR7 (replicate 1) and 115.296 in the experiment with CXCR7 (replicate 2).

Turning to H-MRRKFGGF-NH2 [LIH inverse], the half-maximal effective concentration (EC50) – broadly, the midpoint of the concentration-response curve – at U87 ACKR3 (replicate 1) worked out at 64.8 nM; on U87 ACKR3 (replicate 2) it was 119 nM; at U87 ACKR3 (replicate 3), 112 nM; at U87 ACKR3 (replicate 4), 71.7 nM.
